PubChem BioAssay AID2060509 (Molecular Pharmacology Branch, DTP, NCI, 2025)

Test system: 485176-168-R4-J1-PDC spheroids with HUVEC/MSC, viability
Assay: Anticancer human tumor 485176-168-R4-J1-PDC patient-derived pancreatic adenocarcinoma cell line growth inhibition [GQUAD]
Conditions: for IC50: curve of first compound; for viability, T/C: stronger effect = lower value
Procedure, shortened: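 Tumor cells were grown as complex spheroids with HUVEC endothelial cells and mesenchymal stem cells as stroma. G-quadruplex stabilizers were combined with targeted agents over half-log dilutions from near the clinical Cmax, or from 10 microM.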

[1] = second compound 0.0316 µM, first compound 0.0316 µM
[2] = second compound 0.0316 µM, first compound 0.1 µM
[3] = second compound 0.0316 µM, first compound 0.316 µM
[4] = second compound 0.0316 µM, first compound 1 µM
[5] = second compound 0.0316 µM, first compound 3.16 µM
[6] = second compound 0.0316 µM, first compound 10 µM
[7] = second compound 0.1 µM, first compound 0.0316 µM
[8] = second compound 0.1 µM, first compound 0.1 µM
[9] = second compound 0.1 µM, first compound 0.316 µM
[10] = second compound 0.1 µM, first compound 1 µM
[11] = second compound 0.1 µM, first compound 3.16 µM
[12] = second compound 0.1 µM, first compound 10 µM
[13] = second compound 0.316 µM, first compound 0.0316 µM
[14] = second compound 0.316 µM, first compound 0.1 µM
[15] = second compound 0.316 µM, first compound 0.316 µM
[16] = second compound 0.316 µM, first compound 1 µM
[17] = second compound 0.316 µM, first compound 3.16 µM
[18] = second compound 0.316 µM, first compound 10 µM
[19] = second compound 1 µM, first compound 0.0316 µM
[20] = second compound 1 µM, first compound 0.1 µM
[21] = second compound 1 µM, first compound 0.316 µM
[22] = second compound 1 µM, first compound 1 µM
[23] = second compound 1 µM, first compound 3.16 µM
[24] = second compound 1 µM, first compound 10 µM
[25] = second compound 3.16 µM, first compound 0.0316 µM
[26] = second compound 3.16 µM, first compound 0.1 µM
[27] = second compound 3.16 µM, first compound 0.316 µM
[28] = second compound 3.16 µM, first compound 1 µM
[29] = second compound 3.16 µM, first compound 3.16 µM
[30] = second compound 3.16 µM, first compound 10 µM
[31] = second compound 10 µM, first compound 0.0316 µM
[32] = second compound 10 µM, first compound 0.1 µM
[33] = second compound 10 µM, first compound 0.316 µM
[34] = second compound 10 µM, first compound 1 µM
[35] = second compound 10 µM, first compound 3.16 µM
[36] = second compound 10 µM, first compound 10 µM
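Also: spheroids exposed to compounds for seven days before readout.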
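For viability, T/C in this document: percent viability relative to DMSO vehicle control wells as 100%.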

Which results are given for `Nc1ccn(C2OC(CO)C(O)C2(F)F)c(=O)n1` (centres undefined) + Cc1cnc(CNC(=O)c2c(=O)c3ccc(N4CCCN(C)CC4)nc3n3c2sc2ccccc23)cn1?
IC50 (second compound 0.0316 µM): 42.2 nM; IC50 (second compound 0.1 µM): 33.1 nM; IC50 (second compound 0.316 µM): 42.6 nM; IC50 (second compound 1 µM): < 31.6 nM; IC50 (second compound 3.16 µM): < 31.6 nM; IC50 (second compound 10 µM): < 31.6 nM; viability, T/C [1]: 60.9%; viability, T/C [2]: 17.7%; viability, T/C [3]: 11%; viability, T/C [4]: 8.82%; viability, T/C [5]: 8.83%; viability, T/C [6]: 9.73%; viability, T/C [7]: 51.1%; viability, T/C [8]: 24.9%; viability, T/C [9]: 7.73%; viability, T/C [10]: 11.8%; viability, T/C [11]: 11.2%; viability, T/C [12]: 12.9%; viability, T/C [13]: 60.3%; viability, T/C [14]: 22%; viability, T/C [15]: 10.2%; viability, T/C [16]: 10.3%; viability, T/C [17]: 11.5%; viability, T/C [18]: 11.2%; viability, T/C [19]: 40.8%; viability, T/C [20]: 19.7%; viability, T/C [21]: 11.4%; viability, T/C [22]: 11.6%; viability, T/C [23]: 12.7%; viability, T/C [24]: 11.7%; viability, T/C [25]: 43.6%; viability, T/C [26]: 20.3%; viability, T/C [27]: 11.1%; viability, T/C [28]: 9.17%; viability, T/C [29]: 12.5%; viability, T/C [30]: 12.6%; viability, T/C [31]: 37%; viability, T/C [32]: 24.6%; viability, T/C [33]: 10.4%; viability, T/C [34]: 10.4%; viability, T/C [35]: 11.1%; viability, T/C [36]: 9.2%

What does the source list for `COc1ccc([C@@H](O)c2cc(-c3ncnc4cc(N5CCOCC5)ccc34)c(F)cc2Cl)nn1` + Cc1[nH]c2ccc(F)cc2c1-c1nc2c3cccnc3c3ncccc3c2[nH]1?
IC50 (second compound 0.0316 µM): 3020 nM; IC50 (second compound 0.1 µM): 2690 nM; IC50 (second compound 0.316 µM): 3660 nM; IC50 (second compound 1 µM): 2520 nM; IC50 (second compound 3.16 µM): 1850 nM; IC50 (second compound 10 µM): 1760 nM; viability, T/C [1]: 83.4%; viability, T/C [2]: 98.8%; viability, T/C [3]: 91.8%; viability, T/C [4]: 69.8%; viability, T/C [5]: 51.6%; viability, T/C [6]: 31.4%; viability, T/C [7]: 91.9%; viability, T/C [8]: 90.2%; viability, T/C [9]: 94.7%; viability, T/C [10]: 68.6%; viability, T/C [11]: 48.7%; viability, T/C [12]: 27.7%; viability, T/C [13]: 91.2%; viability, T/C [14]: 88.9%; viability, T/C [15]: 82%; viability, T/C [16]: 86.6%; viability, T/C [17]: 53.2%; viability, T/C [18]: 28.1%; viability, T/C [19]: 81%; viability, T/C [20]: 79%; viability, T/C [21]: 94.2%; viability, T/C [22]: 66.5%; viability, T/C [23]: 46.5%; viability, T/C [24]: 22.4%; viability, T/C [25]: 98.5%; viability, T/C [26]: 87.9%; viability, T/C [27]: 74.4%; viability, T/C [28]: 63.2%; viability, T/C [29]: 39.1%; viability, T/C [30]: 21.3%; viability, T/C [31]: 97.4%; viability, T/C [32]: 78.3%; viability, T/C [33]: 76%; viability, T/C [34]: 56%; viability, T/C [35]: 45.7%; viability, T/C [36]: 21.1%
